Source: US8765982B2, “Synergistic anticoagulant composition” (priority 2009, dated 2014)
Several values for one entry are separate records, joined by “and”; a condition that tells them apart may be missing. Equal entries are not always repeated.

Key:
[1] = Rat feeding study: toxicity control (LDH, AST, ALT, Alkaline Phosphatase, creatinine in plasma and serum); conditions: rats, in feed
Description: (§1) Male, albino, Sprague-Dawley rats (n=100) weighing 150-175 g were placed in quarantine for 1 week and then housed in individual cages. To determine food consumption, rat chow in containers was weighed at the beginning and end of the day to determine the weight of the food consumed by each animal. The containers were modified to prevent spillage. Rats were provided with water ad libitum. The chow was composed of rolled oats, sugar and peanut oil (92:4:4) (w:w:w) plus a standard vitamin/mineral mix.
(§2) Administration of anticoagulant was accomplished by uniformly dispersing the compound in the peanut oil used in the chow. […] […] Actual concentration of the drug to be applied will be based on the average food consumption determined for the rats.
(§3) Groups of rats were established as follows for each UWEC-K compound:
(§4) • A. Diet (Negative) controls: no anticoagulant additive to food • B. Positive controls: food treated with warfarin at LD50 concentration for a rat weighing 180 g • C. Control to evaluate potentiation or diminution of warfarin effect. […] The groups will be repeated for each of the two compounds. Four animals in each group were anaesthetized at 96 hours, and exsanguinated by cardiac puncture. Prior to exsanguination each animal was anesthetized by the intraperitoneal injection of 50 mg/kg of sodium pentothal. Blood was collected in 3.2% citrate in pediatric tubes and tested for prothrombin time and active coagulation factors VII and X. Factor V will also be tested as a marker of potential hepatic toxicity. […] Animals were monitored twice daily and any animals found in apparent distress with be immediately sacrificed as above.

blood clotting [2] = assay: Rat feeding study: overall effect on blood clotting and on the anticoagulant activity of warfarin; format: in vivo, Sprague-Dawley rats; conditions: rats; for effect on blood clotting time and levels of clotting factors, compound alone (in words): without warfarin, all three doses; for effect on the activity of warfarin (in words): 10 days of co-administration with warfarin
Description: The containers were modified to prevent spillage. Rats were provided with water ad libitum.
Thus diets were constructed at 0.1 mpk/d. 1 mpk/d and 10 mpk/d.
Control to evaluate potentiation or diminution of warfarin effect.

clotting factor VII = assay: Rat feeding study: level of active coagulation factor VII; format: in vivo, Sprague-Dawley rats; conditions: rats; for VII %: in feed
Description: as §1, §2, §3, §4

clotting factor X = assay: Rat feeding study: level of active coagulation factor X; format: in vivo, Sprague-Dawley rats; conditions: rats; for X %: in feed
Description: as §1, §2, §3, §4

blood clotting [3] = assay: Rat feeding study: prothrombin time; format: in vivo, Sprague-Dawley rats; design: Pro Time: unit not given beside the values; conditions: rats; for Pro Time: in feed
Description: as §1, §2, §3, §4

rat = conditions: for 5 days; cited from earlier work
blood clotting [4] = conditions: 0.25 mg/kg, rats of approximately 200 gm BW; cited from earlier work
[5] = 10 days, co-administered with warfarin

Q: With `CC(=O)Oc1c2c(c(OC(C)=O)c3ccccc13)[C@H]1C=C[C@@H]2C1` [UWEC-K1] as the molecule, how does the ALT ([1]; 4 days, 0.025 mpk) read?
A: 37.67

Q: And the AST ([1]; 4 days, 0.025 mpk)?
A: 121.00

Q: And the “Alk Phos” value ([1]; 4 days, 0.025 mpk)?
A: 170.67

Q: And the Creat. ([1]; 4 days, 0.025 mpk)?
A: 0.15

Q: What about the LDH ([1]; 4 days, 0.025 mpk) of the same molecule?
A: 1075.33

Q: What about the ALT ([1]; 4 days, 0.25 mpk) of the same molecule?
A: 41.75

Q: What about the AST ([1]; 4 days, 0.25 mpk) of the same molecule?
A: 152.75

Q: What about the “Alk Phos” value ([1]; 4 days, 0.25 mpk) of the same molecule?
A: 245.75

Q: What about the Creat. ([1]; 4 days, 0.25 mpk) of the same molecule?
A: 0.10

Q: And the LDH ([1]; 4 days, 0.25 mpk)?
A: 1168.00

Q: And the ALT ([1]; 4 days, 2.5 mpk)?
A: 39.00

Q: What about the AST ([1]; 4 days, 2.5 mpk) of the same molecule?
A: 125.67

Q: And the “Alk Phos” value ([1]; 4 days, 2.5 mpk)?
A: 230.67

Q: What about the Creat. ([1]; 4 days, 2.5 mpk) of the same molecule?
A: 0.10

Q: What about the LDH ([1]; 4 days, 2.5 mpk) of the same molecule?
A: 1304.67

Q: What about the ALT ([1]; 10 days, 0.025 mpk) of the same molecule?
A: 49.33

Q: What about the AST ([1]; 10 days, 0.025 mpk) of the same molecule?
A: 134.67

Q: And the “Alk Phos” value ([1]; 10 days, 0.025 mpk)?
A: 252.17

Q: And the Creat. ([1]; 10 days, 0.025 mpk)?
A: 0.13

Q: And the LDH ([1]; 10 days, 0.025 mpk)?
A: 1697.17

Q: What about the ALT ([1]; 10 days, 0.25 mpk) of the same molecule?
A: 48.33

Q: And the AST ([1]; 10 days, 0.25 mpk)?
A: 121.33

Q: And the “Alk Phos” value ([1]; 10 days, 0.25 mpk)?
A: 283.50

Q: What about the Creat. ([1]; 10 days, 0.25 mpk) of the same molecule?
A: 0.15

Q: What about the LDH ([1]; 10 days, 0.25 mpk) of the same molecule?
A: 1330.33

Q: What about the ALT ([1]; 10 days, 2.5 mpk) of the same molecule?
A: 49.33

Q: And the AST ([1]; 10 days, 2.5 mpk)?
A: 124.67

Q: And the “Alk Phos” value ([1]; 10 days, 2.5 mpk)?
A: 264.00

Q: What about the Creat. ([1]; 10 days, 2.5 mpk) of the same molecule?
A: 0.15

Q: And the LDH ([1]; 10 days, 2.5 mpk)?
A: 1663.83

Q: What about the “effect on blood clotting time and levels of clotting factors, compound alone (in words)” value (blood clotting [2]; 4 days) of the same molecule?
A: do not differ significantly from control

Q: What about the “effect on the activity of warfarin (in words)” value (blood clotting [2]) of the same molecule?
A: significantly enhance the effect of warfarin

Q: And the “effect on blood clotting time and levels of clotting factors, compound alone (in words)” value (blood clotting [2]; 10 days)?
A: do not differ significantly from control

Q: What about the VII % (clotting factor VII; 4 days, 0.025 mpk) of the same molecule?
A: 346.75%

Q: What about the VII % (clotting factor VII; 4 days, 0.25 mpk) of the same molecule?
A: 351.33%

Q: What about the VII % (clotting factor VII; 4 days, 2.5 mpk) of the same molecule?
A: 370.75%

Q: What about the VII % (clotting factor VII; 10 days, 0.025 mpk) of the same molecule?
A: 364.00%

Q: And the VII % (clotting factor VII; 10 days, 0.25 mpk)?
A: 304.67%

Q: What about the VII % (clotting factor VII; 10 days, 2.5 mpk) of the same molecule?
A: 286.83%

Q: What about the X % (clotting factor X; 4 days, 0.025 mpk) of the same molecule?
A: 74.50%

Q: And the X % (clotting factor X; 4 days, 0.25 mpk)?
A: 65.33%

Q: And the X % (clotting factor X; 4 days, 2.5 mpk)?
A: 64.25%

Q: What about the X % (clotting factor X; 10 days, 0.025 mpk) of the same molecule?
A: 68.00%

Q: And the X % (clotting factor X; 10 days, 0.25 mpk)?
A: 61.17%

Q: What about the X % (clotting factor X; 10 days, 2.5 mpk) of the same molecule?
A: 61.00%

Q: What about the “Pro Time” value (blood clotting [3]; 4 days, 0.025 mpk) of the same molecule?
A: 11.18

Q: And the “Pro Time” value (blood clotting [3]; 4 days, 0.25 mpk)?
A: 11.60

Q: And the “Pro Time” value (blood clotting [3]; 4 days, 2.5 mpk)?
A: 11.78

Q: And the “Pro Time” value (blood clotting [3]; 10 days, 0.025 mpk)?
A: 11.37

Q: What about the “Pro Time” value (blood clotting [3]; 10 days, 0.25 mpk) of the same molecule?
A: 11.72

Q: And the “Pro Time” value (blood clotting [3]; 10 days, 2.5 mpk)?
A: 11.63

Q: What does the source list for `CC(=O)Oc1c2c(c(OC(C)=O)c3ccccc13)[C@@H]1C[C@H]2C2OC21` (stereo partly drawn) [UWEC-K2]?
A: ALT ([1]; 4 days, 0.025 mpk): 40.25; AST ([1]; 4 days, 0.025 mpk): 104.75; Alk Phos ([1]; 4 days, 0.025 mpk): 213.50; Creat. ([1]; 4 days, 0.025 mpk): 0.10; LDH ([1]; 4 days, 0.025 mpk): 758.75; ALT ([1]; 4 days, 0.25 mpk): 45.00; AST ([1]; 4 days, 0.25 mpk): 135.33; Alk Phos ([1]; 4 days, 0.25 mpk): 240.33; Creat. ([1]; 4 days, 0.25 mpk): 0.10; LDH ([1]; 4 days, 0.25 mpk): 1496.33; ALT ([1]; 4 days, 2.5 mpk): 35.50; AST ([1]; 4 days, 2.5 mpk): 114.75; Alk Phos ([1]; 4 days, 2.5 mpk): 217.25; Creat. ([1]; 4 days, 2.5 mpk): 0.10; LDH ([1]; 4 days, 2.5 mpk): 1026.50; ALT ([1]; 10 days, 0.025 mpk): 48.17; AST ([1]; 10 days, 0.025 mpk): 132.33; Alk Phos ([1]; 10 days, 0.025 mpk): 241.67; Creat. ([1]; 10 days, 0.025 mpk): 0.10; LDH ([1]; 10 days, 0.025 mpk): 1552.33; ALT ([1]; 10 days, 0.25 mpk): 47.50; AST ([1]; 10 days, 0.25 mpk): 118.67; Alk Phos ([1]; 10 days, 0.25 mpk): 274.17; Creat. ([1]; 10 days, 0.25 mpk): 0.12; LDH ([1]; 10 days, 0.25 mpk): 1445.50; ALT ([1]; 10 days, 2.5 mpk): 48.50; AST ([1]; 10 days, 2.5 mpk): 110.67; Alk Phos ([1]; 10 days, 2.5 mpk): 264.17; Creat. ([1]; 10 days, 2.5 mpk): 0.15; LDH ([1]; 10 days, 2.5 mpk): 1234.50; effect on blood clotting time and levels of clotting factors, compound alone (in words) (blood clotting [2]; 4 days): do not differ significantly from control; effect on the activity of warfarin (in words) (blood clotting [2]): significantly enhance the effect of warfarin; effect on blood clotting time and levels of clotting factors, compound alone (in words) (blood clotting [2]; 10 days): do not differ significantly from control; levels of Factor VII reduced by a factor compared to control (clotting factor VII; [5]): ~20; levels of Factor VII reduced by a factor relative to warfarin alone (clotting factor VII; [5]): 3; VII % (clotting factor VII; 4 days, 0.025 mpk): 366.25%; VII % (clotting factor VII; 4 days, 0.25 mpk): 334.33%; VII % (clotting factor VII; 4 days, 2.5 mpk): 395.50%; VII % (clotting factor VII; 10 days, 0.025 mpk): 350.17%; VII % (clotting factor VII; 10 days, 0.25 mpk): 295.17%; VII % (clotting factor VII; 10 days, 2.5 mpk, 2.5 mg/kg): 325.33% and 286.83%; levels of Factor X reduced by a factor compared to control (clotting factor X; [5]): ~20; levels of Factor X reduced by a factor relative to warfarin alone (clotting factor X; [5]): 4; X % (clotting factor X; 4 days, 0.025 mpk): 73.25%; X % (clotting factor X; 4 days, 0.25 mpk): 61.00%; X % (clotting factor X; 4 days, 2.5 mpk): 61.00%; X % (clotting factor X; 10 days, 0.025 mpk): 64.17%; X % (clotting factor X; 10 days, 0.25 mpk): 59.83%; X % (clotting factor X; 10 days, 2.5 mpk, 2.5 mg/kg): 63.33% and 61.00%; prothrombin clotting time increase compared to control (blood clotting [3]; [5]): almost an order of magnitude; prothrombin clotting time increased by a factor relative to warfarin alone (blood clotting [3]; [5]): over 4; Pro Time (blood clotting [3]; 4 days, 0.025 mpk): 11.38; Pro Time (blood clotting [3]; 4 days, 0.25 mpk): 11.63; Pro Time (blood clotting [3]; 4 days, 2.5 mpk): 12.73; Pro Time (blood clotting [3]; 10 days, 0.025 mpk): 11.58; Pro Time (blood clotting [3]; 10 days, 0.25 mpk): 11.55; Pro Time (blood clotting [3]; 10 days, 2.5 mpk, 2.5 mg/kg): 11.57 and 11.63

Q: With `CC(=O)CC(c1ccccc1)c1c(O)c2ccccc2oc1=O` (stereo not drawn) [Warfarin, warfarin, reference compound] as the molecule, how does the LD50 (rat) read?
A: 1 mg/kg/day

Q: What about the ALT ([1]; 4 days, 0.25 mpk) of the same molecule?
A: 46.00

Q: What about the AST ([1]; 4 days, 0.25 mpk) of the same molecule?
A: 123.25

Q: And the “Alk Phos” value ([1]; 4 days, 0.25 mpk)?
A: 242.30

Q: And the Creat. ([1]; 4 days, 0.25 mpk)?
A: 0.11

Q: And the LDH ([1]; 4 days, 0.25 mpk)?
A: 1168.88

Q: What about the ALT ([1]; 10 days, 0.25 mpk) of the same molecule?
A: 48.09

Q: And the AST ([1]; 10 days, 0.25 mpk)?
A: 91.82

Q: What about the “Alk Phos” value ([1]; 10 days, 0.25 mpk) of the same molecule?
A: 249.73

Q: What about the Creat. ([1]; 10 days, 0.25 mpk) of the same molecule?
A: 0.15

Q: What about the LDH ([1]; 10 days, 0.25 mpk) of the same molecule?
A: 626.18

Q: What about the INR maintained (blood clotting [4]) of the same molecule?
A: 2.6

Q: And the VII % (clotting factor VII; 4 days, 0.25 mpk)?
A: 29.54%

Q: And the VII % (clotting factor VII; 10 days, 0.25 mpk)?
A: 56.18%

Q: And the X % (clotting factor X; 4 days, 0.25 mpk)?
A: 10.00%

Q: What about the X % (clotting factor X; 10 days, 0.25 mpk) of the same molecule?
A: 14.85%

Q: What about the “Pro Time” value (blood clotting [3]; 4 days, 0.25 mpk) of the same molecule?
A: 36.98

Q: What about the “Pro Time” value (blood clotting [3]; 10 days, 0.25 mpk) of the same molecule?
A: 24.38
